Values quoted from earlier work, collected in US20100069356A1, “DIBENZO[…] DOPAMINE, ALPHA […], AND SEROTONIN RECEPTORS” (AUSPEX PHARMACEUTICALS, INC., priority 2008, published 2010).

Conditions: in vivo

OCCOCCN1CCN(C2=Nc3ccccc3Sc3ccccc32)CC1 [Quetiapine, 2-(2-(4-dibenzo[b,f][1,4]thiazepine-11-yl-1-piperazinyl)ethoxy)ethanol]
half-life: ~6 h
